{"source": "ChEMBL document CHEMBL5465560", "about": "“Selectivity Literature for EUbOPEN Chemogenomic Library” (2024)", "key": {"[1]": {"biological_target": "T1, Serine/threonine-protein kinase LATS1 (Homo sapiens) (UniProt O95835)", "T1 sequence (whole entry)": "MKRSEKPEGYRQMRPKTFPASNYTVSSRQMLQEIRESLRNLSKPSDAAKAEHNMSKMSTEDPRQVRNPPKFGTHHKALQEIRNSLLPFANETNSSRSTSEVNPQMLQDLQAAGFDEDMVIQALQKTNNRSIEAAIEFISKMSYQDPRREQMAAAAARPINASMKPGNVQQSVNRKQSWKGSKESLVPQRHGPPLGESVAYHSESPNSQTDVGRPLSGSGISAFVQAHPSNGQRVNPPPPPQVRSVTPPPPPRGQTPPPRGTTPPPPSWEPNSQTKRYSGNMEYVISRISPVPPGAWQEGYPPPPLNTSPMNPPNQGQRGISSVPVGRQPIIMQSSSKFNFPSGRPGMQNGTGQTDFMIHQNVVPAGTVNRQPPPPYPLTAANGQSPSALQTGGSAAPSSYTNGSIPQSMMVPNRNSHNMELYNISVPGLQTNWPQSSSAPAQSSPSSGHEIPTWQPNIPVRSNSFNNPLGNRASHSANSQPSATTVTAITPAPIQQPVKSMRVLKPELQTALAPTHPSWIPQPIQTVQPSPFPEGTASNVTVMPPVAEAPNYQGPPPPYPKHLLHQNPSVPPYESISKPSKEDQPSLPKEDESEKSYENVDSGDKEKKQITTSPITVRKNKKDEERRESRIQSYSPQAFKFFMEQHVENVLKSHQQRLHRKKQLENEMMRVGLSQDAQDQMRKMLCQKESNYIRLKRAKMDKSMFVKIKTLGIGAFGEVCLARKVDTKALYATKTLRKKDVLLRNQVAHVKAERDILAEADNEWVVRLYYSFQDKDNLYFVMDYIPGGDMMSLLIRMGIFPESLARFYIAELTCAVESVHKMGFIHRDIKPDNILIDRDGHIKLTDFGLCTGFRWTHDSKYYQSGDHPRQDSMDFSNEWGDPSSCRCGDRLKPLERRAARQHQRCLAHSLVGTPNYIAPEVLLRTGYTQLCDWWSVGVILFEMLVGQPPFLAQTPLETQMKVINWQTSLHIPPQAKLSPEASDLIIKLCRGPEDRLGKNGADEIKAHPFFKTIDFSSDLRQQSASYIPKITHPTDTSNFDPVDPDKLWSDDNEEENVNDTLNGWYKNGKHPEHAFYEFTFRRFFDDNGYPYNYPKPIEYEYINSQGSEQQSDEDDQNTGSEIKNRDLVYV", "assay": "Selectivity interaction (KinomeScan (DiscoverX)) EUB0000229b LATS1", "conditions": "at 10 µM"}, "[2]": {"biological_target": "Calcium/calmodulin-dependent protein kinase type II subunit delta (Homo sapiens) (UniProt Q13557)", "sequence (Q13557 whole entry)": "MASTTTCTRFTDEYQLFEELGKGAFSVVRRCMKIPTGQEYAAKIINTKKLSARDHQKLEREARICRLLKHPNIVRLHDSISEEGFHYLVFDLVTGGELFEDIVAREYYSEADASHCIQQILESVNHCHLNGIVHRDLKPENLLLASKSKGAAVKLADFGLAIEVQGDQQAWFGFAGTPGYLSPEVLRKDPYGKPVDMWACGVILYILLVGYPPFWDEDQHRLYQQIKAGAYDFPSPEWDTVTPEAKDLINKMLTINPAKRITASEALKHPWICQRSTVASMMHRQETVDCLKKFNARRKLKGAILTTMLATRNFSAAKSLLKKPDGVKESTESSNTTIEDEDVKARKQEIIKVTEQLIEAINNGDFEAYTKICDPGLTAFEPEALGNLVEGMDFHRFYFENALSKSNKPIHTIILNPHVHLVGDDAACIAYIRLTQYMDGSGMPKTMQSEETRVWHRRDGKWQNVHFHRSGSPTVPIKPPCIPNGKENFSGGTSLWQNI", "assay": "Selectivity interaction (KinomeScan (DiscoverX)) EUB0000045b CAMK2D"}, "[3]": {"biological_target": "Proto-oncogene tyrosine-protein kinase Src (Homo sapiens, UniProt P12931)", "sequence (P12931 2-536 limits assumed)": "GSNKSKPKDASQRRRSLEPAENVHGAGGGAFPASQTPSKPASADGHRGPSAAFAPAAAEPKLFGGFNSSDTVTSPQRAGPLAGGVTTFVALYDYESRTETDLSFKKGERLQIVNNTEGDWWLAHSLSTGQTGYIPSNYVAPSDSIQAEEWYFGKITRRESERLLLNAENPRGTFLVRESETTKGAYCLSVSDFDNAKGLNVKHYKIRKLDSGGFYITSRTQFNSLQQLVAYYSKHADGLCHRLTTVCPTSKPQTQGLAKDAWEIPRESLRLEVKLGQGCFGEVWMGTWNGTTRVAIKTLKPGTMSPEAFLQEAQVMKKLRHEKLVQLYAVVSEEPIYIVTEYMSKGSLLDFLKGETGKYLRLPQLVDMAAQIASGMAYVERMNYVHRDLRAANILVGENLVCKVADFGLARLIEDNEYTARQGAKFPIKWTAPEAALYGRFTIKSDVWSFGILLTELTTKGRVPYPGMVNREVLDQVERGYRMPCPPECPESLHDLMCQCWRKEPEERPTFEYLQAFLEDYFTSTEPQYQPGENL", "assay": "Selectivity interaction (Kinase panel (Z-LYTE Assay)) EUB0001632a SRC", "conditions": "at 10 µM"}, "[4]": {"tested_on": "Serine/threonine-protein kinase B-raf (Homo sapiens), P15056 [V600E]", "sequence (P15056 whole entry V600E)": "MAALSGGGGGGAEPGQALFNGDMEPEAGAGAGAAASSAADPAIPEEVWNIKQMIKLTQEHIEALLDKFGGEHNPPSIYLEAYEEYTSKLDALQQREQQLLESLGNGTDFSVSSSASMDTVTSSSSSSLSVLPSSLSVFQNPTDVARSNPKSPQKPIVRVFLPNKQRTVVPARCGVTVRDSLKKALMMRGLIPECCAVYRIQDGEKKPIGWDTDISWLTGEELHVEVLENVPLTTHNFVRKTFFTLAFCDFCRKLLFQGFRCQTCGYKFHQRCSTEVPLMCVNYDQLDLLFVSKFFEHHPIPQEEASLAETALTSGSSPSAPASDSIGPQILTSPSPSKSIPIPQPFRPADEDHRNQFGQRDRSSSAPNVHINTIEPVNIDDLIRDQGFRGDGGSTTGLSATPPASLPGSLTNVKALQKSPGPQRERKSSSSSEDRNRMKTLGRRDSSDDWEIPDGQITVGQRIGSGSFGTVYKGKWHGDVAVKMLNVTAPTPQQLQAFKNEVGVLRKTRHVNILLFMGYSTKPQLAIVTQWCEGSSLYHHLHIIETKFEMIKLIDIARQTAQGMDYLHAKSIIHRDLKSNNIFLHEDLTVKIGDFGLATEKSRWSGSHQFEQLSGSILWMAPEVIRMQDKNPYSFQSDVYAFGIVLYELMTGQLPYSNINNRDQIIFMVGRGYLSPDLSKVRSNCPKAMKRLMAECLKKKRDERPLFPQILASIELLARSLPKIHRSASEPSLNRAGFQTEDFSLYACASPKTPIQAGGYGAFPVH", "conditions": "at 10 µM"}, "[5]": {"biological_target": "Serine/threonine-protein kinase Chk2 (Homo sapiens) (UniProt O96017)", "sequence (O96017 whole entry)": "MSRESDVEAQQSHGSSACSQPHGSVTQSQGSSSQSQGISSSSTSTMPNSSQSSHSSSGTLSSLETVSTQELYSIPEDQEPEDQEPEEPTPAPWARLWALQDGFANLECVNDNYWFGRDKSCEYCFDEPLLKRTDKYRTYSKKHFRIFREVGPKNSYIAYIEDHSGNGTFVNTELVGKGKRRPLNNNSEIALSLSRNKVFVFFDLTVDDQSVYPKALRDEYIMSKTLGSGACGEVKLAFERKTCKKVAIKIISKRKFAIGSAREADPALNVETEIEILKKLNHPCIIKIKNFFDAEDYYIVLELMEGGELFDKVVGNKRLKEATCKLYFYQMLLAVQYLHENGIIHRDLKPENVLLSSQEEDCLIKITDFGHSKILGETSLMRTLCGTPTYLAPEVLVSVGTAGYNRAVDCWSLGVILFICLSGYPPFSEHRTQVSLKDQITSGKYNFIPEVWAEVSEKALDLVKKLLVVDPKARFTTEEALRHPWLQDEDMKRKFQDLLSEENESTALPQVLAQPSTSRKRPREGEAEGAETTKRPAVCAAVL", "assay": "Selectivity interaction (KinomeScan (DiscoverX)) EUB0001619a CHEK2", "conditions": "at 1 µM"}, "[6]": {"biological_target": "T2, Interleukin-1 receptor-associated kinase 4 (Homo sapiens) (UniProt Q9NWZ3)", "T2 sequence (whole entry)": "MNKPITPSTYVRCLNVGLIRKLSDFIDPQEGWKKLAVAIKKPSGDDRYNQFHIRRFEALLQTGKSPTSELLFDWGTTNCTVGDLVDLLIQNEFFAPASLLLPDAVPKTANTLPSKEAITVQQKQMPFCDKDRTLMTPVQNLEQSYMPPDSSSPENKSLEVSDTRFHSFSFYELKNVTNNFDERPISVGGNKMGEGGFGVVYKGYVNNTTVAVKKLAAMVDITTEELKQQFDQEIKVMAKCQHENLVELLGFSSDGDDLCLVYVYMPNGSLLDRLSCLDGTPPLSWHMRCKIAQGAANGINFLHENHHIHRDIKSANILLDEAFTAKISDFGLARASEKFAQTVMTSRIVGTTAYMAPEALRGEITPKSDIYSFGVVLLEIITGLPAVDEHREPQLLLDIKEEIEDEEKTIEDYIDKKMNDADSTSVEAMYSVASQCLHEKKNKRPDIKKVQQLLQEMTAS", "assay": "Selectivity interaction (SelectScreen profiling (Invitrogen)) EUB0000607a IRAK4", "conditions": "at 2 µM"}, "[7]": {"biological_target": "STE20-like serine/threonine-protein kinase (Homo sapiens, UniProt Q9H2G2)", "sequence (Q9H2G2 whole entry, looked up)": "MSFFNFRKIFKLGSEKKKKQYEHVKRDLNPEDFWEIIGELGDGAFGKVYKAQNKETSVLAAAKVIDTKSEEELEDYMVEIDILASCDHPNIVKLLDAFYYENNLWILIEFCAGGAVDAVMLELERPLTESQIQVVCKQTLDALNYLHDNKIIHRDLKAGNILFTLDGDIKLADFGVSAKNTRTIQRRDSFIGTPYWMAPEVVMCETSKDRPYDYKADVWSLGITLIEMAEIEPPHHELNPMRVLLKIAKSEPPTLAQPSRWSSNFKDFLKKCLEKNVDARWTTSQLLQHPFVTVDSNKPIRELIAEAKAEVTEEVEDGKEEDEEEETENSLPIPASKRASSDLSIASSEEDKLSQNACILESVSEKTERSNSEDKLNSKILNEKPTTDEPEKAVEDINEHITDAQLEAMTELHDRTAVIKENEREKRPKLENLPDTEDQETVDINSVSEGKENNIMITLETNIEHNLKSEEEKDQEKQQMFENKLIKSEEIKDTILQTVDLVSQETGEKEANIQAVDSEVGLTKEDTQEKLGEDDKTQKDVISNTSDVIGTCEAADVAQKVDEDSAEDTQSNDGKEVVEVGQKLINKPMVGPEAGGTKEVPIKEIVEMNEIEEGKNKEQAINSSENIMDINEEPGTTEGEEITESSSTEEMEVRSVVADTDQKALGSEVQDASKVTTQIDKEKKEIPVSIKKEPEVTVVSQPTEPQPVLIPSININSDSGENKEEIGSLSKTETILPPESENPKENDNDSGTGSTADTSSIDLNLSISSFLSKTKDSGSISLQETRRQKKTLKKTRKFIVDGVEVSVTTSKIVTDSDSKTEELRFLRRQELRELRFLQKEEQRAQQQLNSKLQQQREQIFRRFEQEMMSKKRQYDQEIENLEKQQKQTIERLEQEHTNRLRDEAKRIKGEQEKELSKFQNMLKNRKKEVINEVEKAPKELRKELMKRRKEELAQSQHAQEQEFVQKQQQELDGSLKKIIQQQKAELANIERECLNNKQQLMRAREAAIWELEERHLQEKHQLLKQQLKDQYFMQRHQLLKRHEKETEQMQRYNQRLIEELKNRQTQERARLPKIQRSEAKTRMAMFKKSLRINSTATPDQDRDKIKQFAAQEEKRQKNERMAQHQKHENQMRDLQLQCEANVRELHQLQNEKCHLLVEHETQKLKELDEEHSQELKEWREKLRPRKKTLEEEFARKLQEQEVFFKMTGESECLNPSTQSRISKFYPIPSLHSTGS", "assay": "Selectivity interaction (ActivX KiNativ screen (kinase selectivity in THP-1 cell lysates)) EUB0000639a SLK", "format": "subcellular", "conditions": "lysate"}, "[8]": {"biological_target": "Mitogen-activated protein kinase 3 (Homo sapiens, UniProt P27361)", "sequence (P27361 whole entry)": "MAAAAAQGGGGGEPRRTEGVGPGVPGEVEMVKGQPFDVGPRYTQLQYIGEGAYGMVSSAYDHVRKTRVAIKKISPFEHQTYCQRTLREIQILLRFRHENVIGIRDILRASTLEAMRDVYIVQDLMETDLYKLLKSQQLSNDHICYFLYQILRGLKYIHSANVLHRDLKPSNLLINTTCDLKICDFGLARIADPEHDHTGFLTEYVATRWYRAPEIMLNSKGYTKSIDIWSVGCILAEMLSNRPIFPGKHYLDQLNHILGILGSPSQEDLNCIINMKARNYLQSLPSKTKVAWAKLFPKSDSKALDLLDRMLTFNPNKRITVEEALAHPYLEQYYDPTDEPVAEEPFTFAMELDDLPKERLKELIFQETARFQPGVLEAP", "assay": "Selectivity interaction (KinomeScan (DiscoverX)) EUB0000092b MAPK3", "conditions": "at 10 µM"}}, "data": [{"smiles": "COc1cc(N(C)c2ccnc3ccc(C(F)(F)F)cc23)cc(OC)c1OC", "values": [{"measurement": "% binding", "setting": "[1]", "result": 100, "unit": "%"}]}, {"smiles": "C=CC(=O)Nc1cc(-n2c(=O)ccc3cnc4ccc(-c5ccc(NS(C)(=O)=O)cc5)cc4c32)ccc1C", "values": [{"measurement": "% of control", "setting": "[2]; at 1 µM", "result": 100, "unit": "%"}, {"measurement": "% of control", "setting": "[2]; at 10 µM", "result": 92, "unit": "%"}]}, {"smiles": "Cn1cc(-n2cnc3c(NCc4nc5cc(Cl)c(Cl)cc5[nH]4)nc(N4CCOCC4)nc32)cn1", "values": [{"measurement": "% of control", "setting": "[3]", "result": 12.1, "unit": "%"}]}, {"smiles": "Cc1cc([C@@H](C)Nc2ccccc2C(=O)O)c2nc(N3CCOCC3)cc(=O)n2c1", "note": "[AZD-6482]", "values": [{"measurement": "% of control", "setting": "[4]", "result": 92, "unit": "%"}]}, {"smiles": "N#Cc1cccc(-c2c[nH]c3ncnc(N4CCOCC4)c23)c1", "values": [{"measurement": "% of control", "setting": "[5]", "result": 100, "unit": "%"}]}, {"smiles": "CNC(=O)Nc1ccc(-c2nc(N3CC4CCC(C3)O4)c3cnn(C4CCC5(CC4)OCCO5)c3n2)cc1", "values": [{"measurement": "% of inhibition", "setting": "[6]", "result": 3, "unit": "%"}]}, {"smiles": "CC[C@@H]1[C@H](F)C(=O)N[C@@H]1COc1nccc2cc(C(N)=O)c(OC)cc12", "note": "[ZIMLOVISERTIB]", "values": [{"measurement": "% of inhibition", "setting": "[7]; at 0.01 µM", "result": 3.3, "unit": "%"}, {"measurement": "% of inhibition", "setting": "[7]; at 0.04 µM", "result": -3.6, "unit": "%"}, {"measurement": "% of inhibition", "setting": "[7]; at 0.2 µM", "result": -8.9, "unit": "%"}, {"measurement": "% of inhibition", "setting": "[7]; at 1 µM", "result": -13.7, "unit": "%"}, {"measurement": "% of inhibition", "setting": "[7]; at 5 µM", "result": -7.8, "unit": "%"}]}, {"smiles": "CCC(=O)N1CCN(c2ccc(-n3c(=O)ccc4cnc5ccc(-c6cnc7ccccc7c6)cc5c43)cc2C(F)(F)F)CC1", "values": [{"measurement": "% of control", "setting": "[8]", "result": 91, "unit": "%"}]}]}
